# PubChem BioAssay (NCI)
#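 Following 48 hours of exposure in 96-well plates, responses at five concentrations were used to interpolate endpoints linearly. TGI: concentration producing complete growth inhibition.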
# Tests used:
# Assay in all cases: NCI anticancer screen, dose series, 48 h
# [1] = system: UO-31 renal
# [2] = system: MOLT-4 leukemia
# [3] = system: HCT-15 colon
# [4] = system: SNB-19 CNS
# [5] = system: CAKI-1 renal
# [6] = system: SK-MEL-28 melanoma
# [7] = system: OVCAR-4 ovarian
# [8] = system: NCI-H23 lung
# [9] = system: IGROV1 ovarian
# [10] = system: HT29 colon
# [11] = system: OVCAR-5 ovarian
# [12] = system: KM12 colon
# [13] = system: A549 NSCLC
# [14] = system: SF-268 CNS
# [15] = system: SK-OV-3 ovarian
# [16] = system: HOP-92 NSCLC
# [17] = system: MDA-MB-435
# [18] = system: NCI-H522 lung
# [19] = system: PC-3 prostate
# [20] = system: SN12C renal
# [21] = system: SR leukemia
# [22] = system: M14 melanoma
# [23] = system: NCI-H226 lung
# [24] = system: MCF7 breast
# [25] = system: HS 578T breast
# [26] = system: 786-0 renal
# [27] = system: COLO 205 colon
# [28] = system: HL-60(TB) leukemia
# [29] = system: HCT-116 colon
# [30] = system: MDA-N
# [31] = system: OVCAR-8 ovarian
# [32] = system: SK-MEL-2 melanoma
# [33] = system: U251 CNS
# [34] = system: DU-145 prostate
# [35] = system: ACHN renal
# [36] = system: SF-295 CNS
# [37] = system: NCI/ADR-RES ovarian
# [38] = system: MALME-3M melanoma
# [39] = system: CCRF-CEM leukemia
# [40] = system: UACC-62 melanoma
# [41] = system: SF-539 CNS
# [42] = system: HCC-2998 colon
# [43] = system: MDA-MB-231 breast
# [44] = system: UACC-257 melanoma
# [45] = system: RXF 393 renal
# [46] = system: BT-549 breast
# [47] = system: OVCAR-3 ovarian
# [48] = system: HOP-62 NSCLC
# [49] = system: T-47D breast
# [50] = system: SW-620 colon
# [51] = system: LOX IMVI melanoma
# [52] = system: TK-10 renal
# [53] = system: RPMI-8226 leukemia
# [54] = system: EKVX NSCLC
# [55] = system: SK-MEL-5 melanoma
# [56] = system: SNB-75 CNS
# [57] = system: NCI-H460 lung
# [58] = system: K-562 leukemia
# [59] = system: A498 renal
smiles,measurement,setting,value
O=C1NC(N2CCCCC2)=N/C1=C\c1cccs1,TGI,[1],> 100 µM
same,TGI,[2],> 100 µM
same,TGI,[3],> 100 µM
same,TGI,[4],> 100 µM
same,TGI,[5],> 100 µM
same,TGI,[6],> 100 µM
same,TGI,[7],> 100 µM
same,TGI,[8],> 100 µM
same,TGI,[9],> 100 µM
same,TGI,[10],> 100 µM
same,TGI,[11],> 100 µM
same,TGI,[12],> 100 µM
same,TGI,[13],> 100 µM
same,TGI,[14],> 100 µM
same,TGI,[15],> 100 µM
same,TGI,[16],> 100 µM
same,TGI,[17],> 100 µM
same,TGI,[18],> 100 µM
same,TGI,[19],> 100 µM
same,TGI,[20],> 100 µM
same,TGI,[21],> 100 µM
same,TGI,[22],> 100 µM
same,TGI,[23],> 100 µM
same,TGI,[24],> 100 µM
same,TGI,[25],> 100 µM
same,TGI,[26],> 100 µM
same,TGI,[27],> 100 µM
same,TGI,[28],> 100 µM
same,TGI,[29],> 100 µM
same,TGI,[30],> 100 µM
same,TGI,[31],> 100 µM
same,TGI,[32],> 100 µM
same,TGI,[33],> 100 µM
same,TGI,[34],> 100 µM
same,TGI,[35],> 100 µM
same,TGI,[36],> 100 µM
same,TGI,[37],> 100 µM
same,TGI,[38],> 100 µM
same,TGI,[39],> 100 µM
same,TGI,[40],> 100 µM
same,TGI,[41],> 100 µM
same,TGI,[42],> 100 µM
same,TGI,[43],> 100 µM
same,TGI,[44],> 100 µM
same,TGI,[45],> 100 µM
same,TGI,[46],> 100 µM
same,TGI,[47],> 100 µM
same,TGI,[48],> 100 µM
same,TGI,[49],> 100 µM
same,TGI,[50],> 100 µM
same,TGI,[51],> 100 µM
same,TGI,[52],> 100 µM
same,TGI,[53],> 100 µM
same,TGI,[54],> 100 µM
C[C@]12Cc3cnn(-c4ccc(F)cc4)c3NC1CC[C@@H]1C2CC[C@@]2(C)C1CC[C@@H]2O (some centres not stated),TGI,[1],22.5 µM
same,TGI,[2],16.3 µM
same,TGI,[4],56.1 µM
same,TGI,[5],49.4 µM
same,TGI,[6],27.2 µM
same,TGI,[7],27.5 µM
same,TGI,[8],18.7 µM
same,TGI,[9],28.5 µM
same,TGI,[10],3.81 µM
same,TGI,[11],30.5 µM
same,TGI,[12],18.3 µM
same,TGI,[13],30.7 µM
same,TGI,[14],37.9 µM
same,TGI,[15],67.9 µM
same,TGI,[16],24.7 µM
same,TGI,[17],20.8 µM
same,TGI,[55],15 µM
same,TGI,[18],25.4 µM
same,TGI,[19],21.9 µM
same,TGI,[20],30.4 µM
same,TGI,[56],13.3 µM
same,TGI,[21],12.8 µM
same,TGI,[22],23.1 µM
same,TGI,[23],28 µM
same,TGI,[24],36.7 µM
same,TGI,[25],26.5 µM
same,TGI,[26],11.9 µM
same,TGI,[27],10.3 µM
same,TGI,[28],11.8 µM
same,TGI,[29],16.6 µM
same,TGI,[57],16.6 µM
same,TGI,[30],21.8 µM
same,TGI,[31],27.9 µM
same,TGI,[58],24 µM
same,TGI,[59],23 µM
same,TGI,[33],21.7 µM
same,TGI,[34],27.8 µM
same,TGI,[35],29.4 µM
same,TGI,[36],4.38 µM
same,TGI,[38],23.7 µM
same,TGI,[39],32.6 µM
same,TGI,[40],23.3 µM
same,TGI,[41],8.56 µM
same,TGI,[42],18.3 µM
same,TGI,[43],46.9 µM
same,TGI,[44],19.2 µM
same,TGI,[45],5.09 µM
same,TGI,[46],13.4 µM
same,TGI,[47],46.3 µM
same,TGI,[48],26.1 µM
same,TGI,[49],17 µM
same,TGI,[50],13.6 µM
same,TGI,[52],34 µM
same,TGI,[54],25.4 µM
COc1ccc2c(c1)/C(=C\c1c(C)nc3sc(C)cn13)C(=O)N2,TGI,[1],> 100 µM
same,TGI,[2],> 83.8 µM
same,TGI,[3],74.6 µM
same,TGI,[4],> 100 µM
same,TGI,[5],> 100 µM
same,TGI,[6],> 100 µM
same,TGI,[7],> 100 µM
same,TGI,[8],> 70.7 µM
same,TGI,[9],20.5 µM
same,TGI,[10],7.83 µM
same,TGI,[11],74.4 µM
same,TGI,[12],62.4 µM
same,TGI,[13],> 100 µM
same,TGI,[14],53.7 µM
same,TGI,[15],23 µM
same,TGI,[16],> 28.5 µM
same,TGI,[17],0.458 µM
same,TGI,[55],4.62 µM
same,TGI,[18],1.53 µM
same,TGI,[19],> 100 µM
same,TGI,[20],> 100 µM
same,TGI,[21],> 75.6 µM
same,TGI,[22],> 100 µM
same,TGI,[23],> 87.6 µM
same,TGI,[24],> 100 µM
same,TGI,[25],10.3 µM
same,TGI,[26],72.7 µM
same,TGI,[28],3.63 µM
same,TGI,[29],25 µM
same,TGI,[57],16.5 µM
same,TGI,[30],0.46 µM
same,TGI,[31],41.6 µM
same,TGI,[58],> 100 µM
same,TGI,[32],> 28.3 µM
same,TGI,[59],5.42 µM
same,TGI,[33],7.2 µM
same,TGI,[34],> 46.1 µM
same,TGI,[35],> 100 µM
same,TGI,[36],> 20.4 µM
same,TGI,[37],> 42.6 µM
same,TGI,[38],> 100 µM
same,TGI,[39],2.32 µM
same,TGI,[40],97.9 µM
same,TGI,[41],9.58 µM
same,TGI,[42],3.85 µM
same,TGI,[43],73.6 µM
same,TGI,[44],> 78.2 µM
same,TGI,[46],45.8 µM
same,TGI,[47],3.93 µM
same,TGI,[48],> 100 µM
same,TGI,[49],> 100 µM
same,TGI,[50],> 100 µM
same,TGI,[51],61.2 µM
same,TGI,[52],> 100 µM
same,TGI,[53],> 64.8 µM
same,TGI,[54],44.2 µM
COc1cc(C(=O)O[C@@H]2[C@@H](OC(=O)c3cc(OC)c(OC)c(OC)c3)[C@@H](OC)O[C@@H]3CO[C@@H](c4ccccc4)O[C@@H]23)cc(OC)c1OC,TGI,[1],> 100 µM
same,TGI,[2],> 100 µM
same,TGI,[3],> 100 µM
same,TGI,[4],> 100 µM
same,TGI,[5],> 100 µM
same,TGI,[6],> 100 µM
same,TGI,[7],> 100 µM
same,TGI,[8],> 100 µM
same,TGI,[9],> 100 µM
same,TGI,[10],> 100 µM
same,TGI,[11],> 100 µM
same,TGI,[12],> 100 µM
same,TGI,[13],> 100 µM
same,TGI,[14],> 100 µM
same,TGI,[15],> 100 µM
same,TGI,[16],> 100 µM
same,TGI,[17],> 100 µM
same,TGI,[55],> 100 µM
same,TGI,[18],> 100 µM
same,TGI,[19],> 100 µM
same,TGI,[20],> 100 µM
same,TGI,[56],> 100 µM
same,TGI,[21],> 100 µM
same,TGI,[22],> 100 µM
same,TGI,[23],> 100 µM
same,TGI,[24],> 100 µM
same,TGI,[25],> 100 µM
same,TGI,[26],> 100 µM
same,TGI,[27],> 100 µM
same,TGI,[28],> 100 µM
same,TGI,[29],> 100 µM
same,TGI,[57],> 100 µM
same,TGI,[30],> 100 µM
same,TGI,[31],> 100 µM
same,TGI,[58],> 100 µM
same,TGI,[32],> 100 µM
same,TGI,[59],> 100 µM
same,TGI,[33],> 100 µM
same,TGI,[34],> 100 µM
same,TGI,[35],> 100 µM
same,TGI,[36],> 100 µM
same,TGI,[37],> 100 µM
same,TGI,[38],> 100 µM
same,TGI,[39],> 100 µM
same,TGI,[40],> 100 µM
same,TGI,[41],> 100 µM
same,TGI,[42],> 100 µM
same,TGI,[43],> 100 µM
same,TGI,[44],> 100 µM
same,TGI,[46],> 100 µM
same,TGI,[47],> 100 µM
same,TGI,[48],> 100 µM
same,TGI,[49],> 100 µM
same,TGI,[50],> 100 µM
same,TGI,[51],> 100 µM
same,TGI,[52],> 100 µM
same,TGI,[53],> 100 µM
same,TGI,[54],> 100 µM
